ChEMBL document CHEMBL5137007, “Hamuramicin C, a Cytotoxic Bicyclic Macrolide Isolated from a Wasp Gut Bacterium” (J Nat Prod, 2022)

Key:
SNU-638 = assay: Antiproliferative activity against human SNU-638 cells measured after 72 hrs by SRB assay; type: functional, cell-based; conditions: SNU-638, 72 h
[1] = Selectivity index, ratio of IC50 for human MRC5 cells to IC50 for human SK-HEP1 cells; type: toxicity; conditions: MRC5 cells versus SK-HEP1 cells, read-out: Selectivity Index
A549 = assay: Antiproliferative activity against human A549 cells measured after 72 hrs by SRB assay; type: functional, cell-based; conditions: A549, 72 h
[2] = Antiproliferative activity against human MRC5 cells measured after 72 hrs by SRB assay; type: toxicity, cell-based
HCT-116 = assay: Antiproliferative activity against human HCT-116 cells measured after 72 hrs by SRB assay; type: functional, cell-based; conditions: HCT-116, 72 h
MDA-MB-231 = assay: Antiproliferative activity against human MDA-MB-231 cells measured after 72 hrs by SRB assay; type: functional, cell-based; conditions: MDA-MB-231, 72 h
[3] = Selectivity index, ratio of IC50 for human MRC5 cells to IC50 for human A549 cells; type: toxicity; conditions: MRC5 cells versus A549 cells, read-out: Selectivity Index
[4] = Selectivity index, ratio of IC50 for human MRC5 cells to IC50 for human HCT-116 cells; type: toxicity; conditions: MRC5 cells versus HCT-116 cells, read-out: Selectivity Index
SK-HEP1 = assay: Antiproliferative activity against human SK-HEP1 cells measured after 72 hrs by SRB assay; type: functional, cell-based; conditions: SK-HEP1, 72 h
[5] = Selectivity index, ratio of IC50 for human MRC5 cells to IC50 for human MDA-MB-231 cells; type: toxicity; conditions: MRC5 cells versus MDA-MB-231 cells, read-out: Selectivity Index
[6] = Selectivity index, ratio of IC50 for human MRC5 cells to IC50 for human SNU-638 cells; type: toxicity; conditions: MRC5 cells versus SNU-638 cells, read-out: Selectivity Index

SMILES | IC50 (SNU-638) | selectivity ratio [1] | IC50 (A549) | IC50 at 72 h [2] | IC50 (HCT-116) | IC50 (MDA-MB-231) | selectivity ratio [3] | selectivity ratio [4] | IC50 (SK-HEP1) | selectivity ratio [5] | selectivity ratio [6]
CCC[C@]1(O)C[C@H](O)[C@@H](C)[C@H]([C@H](C)[C@@H]2C/C=C/C=C/C=C/[C@H](O)C(=O)/C(C)=C/C(C)=C/[C@@H](O)/C(C)=C/CC(=O)O2)O1 | 2400 nM | 7.2 | 7.3 µM | 18.7 µM | 1300 nM | 3.4 µM | 2.6 | 14.2 | 2600 nM | 5.5 | 7.9
COc1cc([C@@H]2c3cc4c(cc3[C@@H](O[C@@H]3O[C@@H]5CO[C@@H](C)O[C@H]5[C@H](O)[C@H]3O)[C@H]3COC(=O)[C@H]23)OCO4)cc(OC)c1O [ETOPOSIDE] |  |  | 0.8 µM | > 20 µM | 1400 nM | 9.7 µM |  |  | 700 nM |  | 
